36 molecules from patent US11623931B2, “Bicyclic compounds for diagnosis and therapy” (AC IMMUNE SA, priority 2016, dated 2023) can be followed below.

Common to all, as to parameters: key: − (No); +/− (very weak); + (weak); ++ (good); +++ (strong)
Test [1] deals with Aβ plaques on PD sections with mixed pathology. Put plainly: Assay 1 (fluorescence based assay): direct staining of PD brain sections with mixed pathology. The test is classed as binding, human. The note with it: staining intensity; compound 100 μM, frozen amygdala sections, PD Braak stage V-VI with aSyn aggregates and Aβ plaques. Here is the method:
(§1) Direct Staining of Compounds of this Invention to Human Parkinson's Disease Brain Sections
(§2) 20 μm frozen sections from amygdala were purchased from an external provider (Tissue Solutions Ltd.). Donors were diagnosed with PD, Braak stage V-VI (Braak et al., Neurobiol. Aging, 2003, 24, 197-211) and thus with confirmed aSyn pathology. PD donors, Braak stage V-VI with mixed pathology, containing aSyn aggregates as well as Aβ plaques, were also used in this assay. Sections were kept at −80° C. until start of the experiment.
(§3) Brain sections were encircled with pap pen liquid blocker to reduce the volume of solution for the different incubations. Sections were fixed for 15 min at 4° C. with 4% paraformaldehyde and washed three times for 5 minutes with PBS (phosphate buffered saline) at room temperature. Test compounds were incubated on the sections at 100 μM in 50% ethanol in water for 30 min at room temperature, followed by three washes of 5 minutes with PBS. Sections were then saturated and permeabilized in blocking buffer (PBS, 10% NGS, 0.25% Triton) for 1 hour at room temperature and then incubated for 2 hours at room temperature with the primary antibodies against aSyn: aSyn-211 (SantaCruz Biotechnology sc-12767) or aSyn-pS129 (Abcam AB51253), and primary antibody against AR, 4G8, (Covance, SIG-39220). All primary antibodies diluted 1/250 in PBS, 5% NGS, 0.25% Triton. After three washes in PBS, the sections were incubated for 30 minutes at room temperature with a secondary anti-mouse antibody labeled with AlexaFluor555 (Invitrogen A21422) or anti-rabbit antibody labeled with AlexaFluor555 (Invitrogen A21428) and further washed three times in PBS. To reduce auto-fluorescence of the tissue, the sections were incubated in a solution of 0.1% Sudan Black (Sigma 199664) in 70% ethanol for 15 min at room temperature, followed by four washes with PBS and mounted under cover slips using ProLong Gold Antifade reagent (Invitrogen P36930).
(§4) Sections were analyzed on the Nikon Eclipse Ti microscope to detect staining and imaged using Nikon DS-Fi2 camera and NIS-Element AR4.13.1 software.

The target of test [2] is T1, aSyn aggregates on PD sections (Homo sapiens, UniProt P37840).
T1 construct: 20 μm frozen sections from amygdala were purchased from an external provider (Tissue Solutions Ltd.); tissue Tissue Solutions Ltd; host or cells: human PD amygdala, frozen sections, Braak stage V-VI
Put plainly: Assay 1 (fluorescence based assay): direct staining of human Parkinson's disease brain sections. Conditions: staining intensity; compound 100 μM, frozen amygdala sections, PD Braak stage V-VI. The test is classed as binding.
Source text: Assay 1 (Fluorescence Based Assay):
as §1, §2, §3, §4

The subject of test [3] is Aβ plaques on AD sections. Put plainly: Assay 1 (fluorescence based assay): direct staining of human Alzheimer's disease brain sections. The note with it: staining intensity; compound 100 μM, frozen amygdala sections, AD Braak stage V-VI. The test is classed as binding. How it is done:
Direct Staining of Compounds of this Invention to Human Alzheimer's Disease Brain Sections 20 μm frozen sections from amygdala were purchased from an external provider (Tissue Solutions Ltd.). Donors were diagnosed with AD, Braak stage V-VI (Braak et al., Neurobiol. Aging, 1995, 16, 271-284) and thus with confirmed Aβ pathology. Sections were kept at −80° C. until start of the experiment. Brain sections were encircled with pap pen liquid blocker to reduce the volume of solution for the different incubations. Sections were fixed for 15 min at 4° C. with 4% paraformaldehyde and washed three times for 5 minutes with PBS at room temperature. Test compounds were incubated on the sections at 100 μM in 50% ethanol in water for 30 min at room temperature, followed by three washes of 5 minutes with PBS. Sections were then saturated and permeabilized in blocking buffer (PBS, 10% NGS, 0.25% Triton) for 1 hour at room temperature and then incubated for 2 hours at room temperature with the primary antibodies against AR, 4G8, (Covance, SIG-39220), diluted 1/250 in PBS, 5% NGS, and 0.25% Triton. After three washes in PBS, the sections were incubated for 30 minutes at room temperature with a secondary anti-mouse antibody labeled with AlexaFluor555 (Invitrogen A21422) and further washed three times in PBS. To reduce auto-fluorescence of the tissue, the sections were incubated in a solution of 0.1% Sudan Black (Sigma 199664) in 70% ethanol for 15 min at room temperature, followed by four washes with PBS and mounted under cover slips using ProLong Gold Antifade reagent (Invitrogen P36930). Sections were analyzed on the Nikon Eclipse Ti microscope to detect staining and imaged using Nikon DS-Fi2 camera and NIS-Element AR4.13.1 software.

For `Cc1n[nH]c(C)c1-c1ccc2sc(-c3ccc(N4CCCC4)nc3F)nc2n1` [Example 88], in test [1], the “Staining of Aβ plaques on PD sections with mixed pathology” value (“Staining … with mixed pathology” below) was “−”. In test [2], the “Staining of aSyn aggregates on PD sections” value (“Staining of aSyn aggregates” for short) is on record as “+++”.

For the molecule `Fc1nc(N2CCCC2)ccc1-c1ccc2cc(-c3cncnc3)sc2n1` [Example 110], the “Staining … with mixed pathology” value in test [1] was “+++”. Further, the “Staining of aSyn aggregates” value in test [2] is “+”.

Turning to `Cn1cncc1-c1ccc2sc(-c3ccc(N4CCCC4)nc3F)nc2n1` [Example 94], the “Staining … with mixed pathology” value in test [1] is “−”. Besides, the “Staining of aSyn aggregates” value in test [2] is “+++”.

For `O=C1c2sc(-c3ccc(N4CC[C@@H](F)C4)nc3)nc2CCN1c1cccnc1` [Example 129], the “Staining … with mixed pathology” value in test [1] is recorded as “+++”. The “Staining of aSyn aggregates” value in test [2] was “++”.

On to `F[C@H]1CCCN(c2ccc(-c3nc4ncc(-c5cccnc5)cc4s3)cn2)C1` [Example 101], for which, in test [1], the “Staining … with mixed pathology” value is “+”. Also, in test [2], the “Staining of aSyn aggregates” value was “++”.

`O=C1NCCc2nc(N3CC[C@H](F)C3)sc21` [Example 119]: the “Staining … with mixed pathology” value in test [1] is “−”. Further, in test [2], the “Staining of aSyn aggregates” value is on record as “+”.

In the case of `c1cncc(-c2cc3nc(-c4ccc(N5CCCC5)nc4)sc3cn2)c1` [Example 24], in test [3], the “Staining of Aβ plaques on AD sections” value is “+”. In addition, the “Staining of aSyn aggregates” value in test [2] is reported as “++”.

Take `OCCOC1CCN(c2ccc3cc(-c4cccnc4)sc3n2)CC1` [Example 49]: the “Staining of Aβ plaques on AD sections” value in test [3] is recorded as “++”. The “Staining of aSyn aggregates” value in test [2] is reported as “++”.

As to `COc1ccc(/C=C/c2ccc3cc(-c4cccnc4)sc3n2)cc1` [Example 15], the “Staining of Aβ plaques on AD sections” value in test [3] is listed as “+++”. Also, the “Staining of aSyn aggregates” value in test [2] is “+++”.

`c1n[nH]cc1-c1cc2nc(-c3ccc(N4CCCC4)nc3)sc2cn1` [Example 25]: the “Staining of Aβ plaques on AD sections” value in test [3] is listed as “+”. For the same molecule, the “Staining of aSyn aggregates” value in test [2] is on record as “++”.

With `c1cncc(-c2cc3ccc(Nc4ccc5c(c4)OCCO5)nc3s2)c1` [Example 64], in test [3], the “Staining of Aβ plaques on AD sections” value is reported as “+++”. In addition, the “Staining of aSyn aggregates” value in test [2] is recorded as “+”.

As for `Cn1cc(-c2ccc3sc(-c4ccc(N5CC[C@@H](F)C5)nc4)cc3n2)cn1` [Example 51], the “Staining of Aβ plaques on AD sections” value in test [3] is “+”. The “Staining of aSyn aggregates” value in test [2] was “++”.

Take `CNc1ccc(-c2ccc3cc(-c4cccc(OC)c4)sc3n2)cc1` [Example 9]: the “Staining of Aβ plaques on AD sections” value in test [3] was “++”. The “Staining of aSyn aggregates” value in test [2] is on record as “++”.

On to `c1ncc(-c2cc3ccc(-c4ccc(N5CCCC5)nc4)nc3s2)cn1` [Example 35], for which the “Staining of Aβ plaques on AD sections” value in test [3] is recorded as “++”. Moreover, the “Staining of aSyn aggregates” value in test [2] is on record as “++”.

With `COc1ccc(/C=C/c2ccc3cc(-c4ccc(OCCF)cc4)sc3n2)cc1` [Example 13], the “Staining of Aβ plaques on AD sections” value in test [3] was “+++”. Also, in test [2], the “Staining of aSyn aggregates” value is given as “++”.

Consider `O=C1COCCN1c1ccc2nc(-c3ccc(N4CCC[C@@H](F)C4)nc3)sc2c1` [Example 126], for which, in test [3], the “Staining of Aβ plaques on AD sections” value was “++”. For the same molecule, the “Staining of aSyn aggregates” value in test [2] is recorded as “++”.

`F[C@@H]1CCN(c2ccc(-c3ccc4cc(-c5cccnc5)sc4n3)cn2)C1` [Example 45]: in test [3], the “Staining of Aβ plaques on AD sections” value is recorded as “++”. Further, the “Staining of aSyn aggregates” value in test [2] is on record as “+”.

As for `CNc1ccc(-c2ccc3cc(-c4ccccc4OC)sc3n2)cn1` [Example 7], the “Staining of Aβ plaques on AD sections” value in test [3] is given as “+++”. In test [2], the “Staining of aSyn aggregates” value was “++”.

Take `Fc1cncc(-c2ccc3sc(-c4ccc(N5CCCC5)nc4)cc3n2)c1` [Example 28]: the “Staining of Aβ plaques on AD sections” value in test [3] is “+”. For the same molecule, in test [2], the “Staining of aSyn aggregates” value is “+”.

Take `CNc1ccc(-c2ccc3cc(-c4ccnc(OC)c4)sc3n2)cc1` [Example 31]: the “Staining of Aβ plaques on AD sections” value in test [3] was “++”. In addition, the “Staining of aSyn aggregates” value in test [2] is given as “+”.

As to `CNc1ccc(-c2ccc3cc(-c4ccc(OC)c(O)c4)sc3n2)cc1` [Example 30], in test [3], the “Staining of Aβ plaques on AD sections” value was “++”. The “Staining of aSyn aggregates” value in test [2] is recorded as “++”.

Regarding `O=C1c2sc(-c3ccc(N4CCCC4)nc3)nc2CCN1c1cccnc1` [Example 80], the “Staining of Aβ plaques on AD sections” value in test [3] is “++”. The “Staining of aSyn aggregates” value in test [2] is on record as “+++”.

`COc1cccc(/C=C/c2ccc3cc(-c4cccnc4)sc3n2)c1` [Example 16]: the “Staining of Aβ plaques on AD sections” value in test [3] was “++”. The “Staining of aSyn aggregates” value in test [2] is listed as “++”.

`FCCOc1ccc(-c2cc3ccc(-c4ccc(F)nc4)nc3s2)cc1` [Example 12]: the “Staining of Aβ plaques on AD sections” value in test [3] is “++”. The “Staining of aSyn aggregates” value in test [2] is given as “+”.

Take `O=C1c2sc(-c3ccc(N4CCCC4)nc3)nc2CCN1CCF` [Example 78]: the “Staining of Aβ plaques on AD sections” value in test [3] is “+”. The “Staining of aSyn aggregates” value in test [2] is reported as “+”.

In the case of `c1cncc(-c2cc3ccc(-c4ccc(N5CCCC5)nc4)nc3s2)c1` [Example 32], the “Staining of Aβ plaques on AD sections” value in test [3] was “+++”. Besides, the “Staining of aSyn aggregates” value in test [2] is listed as “+++”.

For the molecule `CNc1ccc(-c2ccc3cc(-c4cccnc4)sc3n2)cn1` [Example 47], the “Staining of Aβ plaques on AD sections” value in test [3] is reported as “+++”. The “Staining of aSyn aggregates” value in test [2] is “+++”.

In the case of `CNc1ccc(-c2ccc3cc(-c4cccc(OC)c4O)sc3n2)cn1` [Example 3], the “Staining of Aβ plaques on AD sections” value in test [3] is given as “++”. In addition, the “Staining of aSyn aggregates” value in test [2] is on record as “++”.

For the molecule `FCCOc1cccc(Nc2ccc3cc(-c4cccnc4)sc3n2)c1` [Example 59], the “Staining of Aβ plaques on AD sections” value in test [3] is “+”. In addition, the “Staining of aSyn aggregates” value in test [2] is “+”.

As to `CN(C)c1ncc(-c2ccc3cc(-c4cccnc4)sc3n2)cn1` [Example 29], the “Staining of Aβ plaques on AD sections” value in test [3] is on record as “++”. For the same molecule, the “Staining of aSyn aggregates” value in test [2] is recorded as “+”.

For the molecule `Cn1cc(-c2ccc3sc(-c4ccc(N5CCCC5)nc4)nc3c2)cn1` [Example 20], the “Staining of Aβ plaques on AD sections” value in test [3] is reported as “−”. Further, in test [2], the “Staining of aSyn aggregates” value is “+”.

As for `Cn1cc(-c2ccc3sc(-c4ccc(N5CC[C@H](F)C5)nc4)nc3c2)cn1` [Example 53], the “Staining of Aβ plaques on AD sections” value in test [3] is “+”. For the same molecule, the “Staining of aSyn aggregates” value in test [2] is recorded as “+”.

For `FCCn1cc(-c2cc3nc(-c4ccc(N5CCCC5)nc4)sc3cn2)cn1` [Example 79], the “Staining of Aβ plaques on AD sections” value in test [3] is “+”. For the same molecule, the “Staining of aSyn aggregates” value in test [2] is reported as “+”.

For `CNc1ccc(-c2cc3ccc(Nc4ccc5c(c4)OCCO5)nc3s2)cc1` [Example 75], in test [3], the “Staining of Aβ plaques on AD sections” value is reported as “+++”. Also, the “Staining of aSyn aggregates” value in test [2] is “++”.

As for `CNc1ccc(-c2cc3ccc(-c4ccc(OCCF)cc4)nc3s2)cc1` [Example 10], the “Staining of Aβ plaques on AD sections” value in test [3] was “+++”. In test [2], the “Staining of aSyn aggregates” value is “+”.

`c1ccc(-c2cc3ccc(-c4ccc(N5CCCC5)nc4)nc3s2)nc1` [Example 21]: in test [3], the “Staining of Aβ plaques on AD sections” value is recorded as “++”. Further, the “Staining of aSyn aggregates” value in test [2] is recorded as “++”.
